According to patent publication US20240174671A1, “New 2,3-Dihydro-1H-pyrrolo[3,2-b]pyridine Derivatives as Sigma Ligands” (ACONDICIONAMIENTO TARRASENSE, priority 2021, published 2024):

Tests used:
human σ2/TMEM97 receptor = biological target: T1, human σ2/TMEM97 receptor (Homo sapiens, UniProt Q5BJF2); assay: Binding assay to human σ2/TMEM97 receptor ([3H]-DTG); details: transfected HEK-293 membranes, 10 nM [3H]-DTG, 25° C., 120 minutes; read-out: Binding σ-[…] (binding to σ2-receptor expressed as Ki)
T1 construct: expressed in transfected cells; host or cells: HEK-293
T1 sequence (Q5BJF2 whole entry): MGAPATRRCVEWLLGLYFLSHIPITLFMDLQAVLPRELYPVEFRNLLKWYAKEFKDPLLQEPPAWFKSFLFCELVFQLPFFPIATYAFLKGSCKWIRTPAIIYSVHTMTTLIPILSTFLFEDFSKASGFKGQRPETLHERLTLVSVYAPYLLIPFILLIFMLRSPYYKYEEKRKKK
Experimental: Binding Assay to Human σ2/TMEM97 Receptor.
Transfected HEK-293 membranes (15 μg) were incubated with 10 nM [^3H]-1,3-Di-o-tolylguanidine (DTG) in assay buffer containing Tris-HCl 50 mM at pH 8.0. NSB (non-specific binding) was measured by adding 10 μM haloperidol. The binding of the test compound was measured at either one concentration (% inhibition at 1 or 10 µM) or five different concentrations to determine affinity values (Ki). Plates were incubated at 25° C. for 120 minutes. After the incubation period, the reaction mix was transferred to MultiScreen HTS, FC plates (Millipore), filtered and washed 3 times with ice-cold 10 mM Tris-HCL (pH 8.0). Filters were dried and counted at approximately 40% efficiency in a MicroBeta scintillation counter (Perkin-Elmer) using EcoScint liquid scintillation cocktail.

human σ1 receptor = biological target: T2, human σ1 receptor (Homo sapiens, UniProt Q99720); assay: Human σ1 receptor radioligand assay ([3H](+)-pentazocine); type: binding; details: transfected HEK-293 membranes, 5 nM [3H](+)-pentazocine, 37° C., 120 minutes; read-out: Binding σ-[…] (binding to σ1-receptor expressed as Ki)
T2 construct: expressed in transfected cells; host or cells: HEK-293
T2 sequence (Q99720 whole entry): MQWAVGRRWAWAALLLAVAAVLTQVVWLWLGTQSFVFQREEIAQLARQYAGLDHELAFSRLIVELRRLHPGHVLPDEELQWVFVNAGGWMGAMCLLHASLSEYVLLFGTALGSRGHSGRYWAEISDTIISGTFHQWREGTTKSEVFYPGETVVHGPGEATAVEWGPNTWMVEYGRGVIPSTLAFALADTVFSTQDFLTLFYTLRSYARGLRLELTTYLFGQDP
Experimental: Human σ1 Receptor Radioligand Assay
NBS (non-specific binding) was measured by adding 10 μM haloperidol. The binding of the test compound was measured at either one concentration (% inhibition at 1 or 10 µM) or five different concentrations to determine affinity values (Ki). Plates were incubated at 37° C. for 120 minutes. After the incubation period, the reaction mix was then transferred to MultiScreen HTS, FC plates (Millipore), filtered and plates were washed 3 times with ice-cold 10 mM Tris-HCL (pH7.4). Filters were dried and counted at approximately 40% efficiency in a MicroBeta scintillation counter (Perkin-Elmer) using EcoScint liquid scintillation cocktail.

| SMILES | Ki (human σ2/TMEM97 receptor) [nM] | Ki (human σ1 receptor) [nM] |
| --- | --- | --- |
| COc1cccc(CN(C)C2CCN(C(=O)N3CC(C)(C)c4nc(C)ccc43)CC2)c1 [Example 59] | < 100 | 500 to 1000 |
| Cc1ccc2c(n1)C(C)(C)CN2C(=O)N1CCC(N(C)Cc2ccc(F)c(C#N)c2)CC1 [Example 60, 2-fluoro-5-((methyl(1-(3,3,5-trimethyl-2,3-dihydro-1H-pyrrolo[3,2-b]pyridine-1-carbonyl)piperidin-4-yl)amino)methyl)benzonitrile] | < 100 | 100 to 500 |
| CN(Cc1ccccc1)[C@H]1CCCN(C(=O)N2CCc3ncccc32)C1 [Example 61, (S)-(3-(benzyl(methy)amino)piperidin-1-yl)(2,3-dihydro-1H-pyrrolo[3,2-b]pyridin-1-yl)methanone] | < 100 | > 1000 |
| CN(CCc1ccccc1)[C@H]1CCN(C(=O)N2CCc3ncccc32)C1 [Example 62, (S)-(2,3-dihydro-1H-pyrrolo[3,2-b]pyridin-1-yl)(3-(methyl(phenethyl)amino)pyrrolidin-1-yl)methanone] | 500 to 1000 | > 1000 |
| Cc1ccc2c(n1)C(C)(C)CN2C(=O)N1CCC(N(C)Cc2cccc(C(=O)N(C)C)c2)CC1 [Example 63, N, N-dimethyl-3-((methyl(1-(3,3,5-trimethyl-2,3-dihydro-1H-pyrrolo[3,2-b]pyridine-1-carbonyl)piperidin-4-yl)amino)methyl)benzamide] | > 1000 | > 1000 |
| CC(C)CCN(C)[C@H]1CCCN(C(=O)N2CCc3ncccc32)C1 [Example 64, (S)-(2,3-dihydro-1H-pyrrolo[3,2-b]pyridin-1-yl)(3-(isopentyl(methy)amino)piperidin-1-yl)methanone] | < 100 | < 100 |
| Cc1ccc2c(n1)C(C)(C)CN2C(=O)N1CCC(N(C)CC2CCOCC2)CC1 [Example 65, (4-(methyl((tetrahydro-2H-pyran-4-yl)methyl)amino)piperidin-1-yl)(3,3,5-trimethyl-2,3-dihydro-1H-pyrrolo[3,2-t]pyridin-1-yl)methanone] | < 100 | 100 to 500 |
| Cc1ccc2c(n1)C(C)(C)CN2C(=O)N1CCC(CN(C)Cc2ccccc2)CC1 [Example 66, (4-((benzyl(methyl)amino)methyl)piperidin-1-yl)(3,3,5-trimethyl-2,3-dihydro-1H-pyrrolo[3,2-b]pyridin-1-yl)methanone] | 100 to 500 | 100 to 500 |
| Cc1ccc2c(n1)C(C)(C)CN2C(=O)N1CCC(N(C)CCC(C)C)CC1 [Example 67, (4-(isopentyl(methyl)amino)piperidin-1-yl)(3,3,5-trimethyl-2,3-dihydro-1H-pyrrolo[3,2-b]pyridin-1-yl)methanone] | < 100 | < 100 |
| Cc1ccc2c(n1)C(C)(C)CN2C(=O)N1CCC(N(C)Cc2ccc(N(C)C)cc2)CC1 [Example 68, (4-((4-(dimethylamino)benzyl)(methyl)amino)piperidin-1-yl)(3,3,5-trimethyl-2,3-dihydro-1H-pyrrolo[3,2-b]pyridin-1-yl)methanone] | < 100 | 100 to 500 |
| CC1(C)CN(C(=O)NCC2CCN(Cc3ccccc3)CC2)c2cccnc21 [Example 69, N-((1-benzylpiperidin-4-yl)methyl)-3,3-dimethyl-2,3-dihydro-1H-pyrrolo[3,2-b]pyridine-1-carboxamide] | 100 to 500 | 100 to 500 |
| CC1(C)CN(C(=O)NCC2CCN(CCc3ccccc3)CC2)c2cccnc21 [Example 70, 3,3-dimethyl-N-((1-phenethylpiperidin-4-yl)methyl)-2,3-dihydro-1H-pyrrolo[3,2-b]pyridine-1-carboxamide] | 100 to 500 | > 1000 |
| CN(Cc1ccccc1)[C@H]1CC[C@H](NC(=O)N2CC(C)(C)c3ncccc32)CC1 [Example 71, N-((1r,4r)-4-(benzyl(methyl)amino)cyclohexyl)-3,3-dimethyl-2,3-dihydro-1H-pyrrolo[3,2-b]pyridine-1-carboxamide] | < 100 | > 1000 |
| CN(Cc1ccccc1)[C@H]1CC[C@@H](NC(=O)N2CC(C)(C)c3ncccc32)CC1 [Example 72, N-((1s,4s)-4-(benzyl(methyl)amino)cyclohexyl)-3,3-dimethyl-2,3-dihydro-1H-pyrrolo[3,2-b]pyridine-1-carboxamide] | < 100 | < 100 |
| Cc1ccc2c(n1)C(C)(C)CN2C(=O)N1CCC(N(C)Cc2ccccn2)CC1 [Example 73, (4-(methyl(pyridin-2-ylmethyl)amino)piperidin-1-yl)(3,3,5-trimethyl-2,3-dihydro-1H-pyrrolo[3,2-b]pyridin-1-yl)methanone] | 500 to 1000 | > 1000 |
| Cc1ccc2c(n1)C(C)(C)CN2C(=O)N1CCC(N(C)Cc2cccnc2)CC1 [Example 74, (4-(methyl(pyridin-3-ylmethyl)amino)piperidin-1-yl)(3,3,5-trimethyl-2,3-dihydro-1H-pyrrolo[3,2-b]pyridin-1-yl)methanone] | 500 to 1000 | > 1000 |
| Cc1ccc2c(n1)C(C)(C)CN2C(=O)N1CCC(N(C)Cc2ccncc2)CC1 [Example 75, (4-(methyl(pyridin-4-ylmethyl)amino)piperidin-1-yl)(3,3,5-trimethyl-2,3-dihydro-1H-pyrrolo[3,2-b]pyridin-1-yl)methanone] | 500 to 1000 | > 1000 |
| CN(Cc1cc(F)cc(C#N)c1)C1CCN(C(=O)N2CC(C)(C)c3ncccc32)CC1 [Example 76, 3-(((1-(3,3-dimethyl-2,3-dihydro-1H-pyrrolo[3,2-b]pyridine-1-carbonyl)piperidin-4-yl)(methyl)amino)methyl)-5-fluorobenzonitrile] | 500 to 1000 | > 1000 |
| CN(Cc1cc(C#N)ccc1F)C1CCN(C(=O)N2CC(C)(C)c3ncccc32)CC1 [Example 77, 3-(((1-(3,3-dimethyl-2,3-dihydro-1H-pyrrolo[3,2-b]pyridine-1-carbonyl)piperidin-4-yl)(methyl)amino)methyl)-4-fluorobenzonitrile] | 100 to 500 | > 1000 |
| CN(Cc1ccccc1)[C@H]1CC[C@H](N(C)C(=O)N2CC(C)(C)c3ncccc32)CC1 [Example 78, N-((1r,4r)-4-(benzyl(methyl)amino)cyclohexyl)-N,3,3-trimethyl-2,3-dihydro-1H-pyrrolo[3,2-b]pyridine-1-carboxamide] | < 100 | 500 to 1000 |
| CN(Cc1ccc(F)c(F)c1)C1CCN(C(=O)N2CC(C)(C)c3ncccc32)CC1 [Example 79, (4-((3,4-Difluorobenzyl)(methyl)amino)piperidin-1-yl)(3,3-dimethyl-2,3-dihydro-1H-pyrrolo[3,2-b]pyridin-1-yl)methanone] | < 100 | 100 to 500 |
| Cc1ccc2c(n1)C(C)(C)CN2C(=O)N1CCC2(CCN(Cc3ccccc3)CC2)C1 [Example 80, (8-benzyl-2,8-diazaspiro[4.5]decan-2-yl)(3,3,5-trimethyl-2,3-dihydro-1H-pyrrolo[3,2-b]pyridin-1-yl)methanone] | < 100 | 100 to 500 |
| Cc1ccc2c(n1)C(C)(C)CN2C(=O)N1CC2(CN(Cc3ccccc3)C2)C1 [Example 81, (6-benzyl-2,6-diazaspiro[3.3]heptan-2-yl)(3,3,5-trimethyl-2,3-dihydro-1H-pyrrolo[3,2-b]pyridin-1-yl)methanone] | 500 to 1000 | < 100 |
| Cc1ccc2c(n1)C(C)(C)CN2C(=O)NCC1CN(Cc2ccccc2)C1 [Example 82, N-((1-benzylazetidin-3-yl)methyl)-3,3,5-trimethyl-2,3-dihydro-1H-pyrrolo[3,2-b]pyridine-1-carboxamide] | < 100 | 100 to 500 |
| CN(Cc1cccc(C#N)c1)C1CCN(C(=O)N2CC(C)(C)c3ncccc32)CC1 [Example 83, 3-(((1-(3,3-dimethyl-2,3-dihydro-1H-pyrrolo[3,2-b]pyridine-1-carbonyl)piperidin-4-yl)(methyl)amino)methyl)benzonitrile] | 100 to 500 | > 1000 |
| CN(Cc1ccc(C#N)cc1)C1CCN(C(=O)N2CC(C)(C)c3ncccc32)CC1 [Example 84, 4-(((1-(3,3-dimethyl-2,3-dihydro-1H-pyrrolo[3,2-b]pyridine-1-carbonyl)piperidin-4-yl)(methyl)amino)methyl)benzonitrile] | < 100 | 100 to 500 |
| CN(Cc1cccc(F)c1)C1CCN(C(=O)N2CC(C)(C)c3ncccc32)CC1 [Example 85, (3,3-dimethyl-2,3-dihydro-1H-pyrrolo[3,2-b]pyridin-1-yl)(4-((3-fluorobenzyl)(methyl)amino)piperidin-1-yl)methanone] | 100 to 500 | 500 to 1000 |
| CN(Cc1ccc(F)cc1)C1CCN(C(=O)N2CC(C)(C)c3ncccc32)CC1 [Example 86, (3,3-dimethyl-2,3-dihydro-1H-pyrrolo[3,2-b]pyridin-1-yl)(4-((4-fluorobenzyl)(methyl)amino)piperidin-1-yl)methanone] | < 100 | 500 to 1000 |
